IC50 and ED50 data for five molecules are collected here from patent publication US6448286B1, “Imino pyrrolidine derivatives useful as nitric oxide synthase inhibitors” (G.D. Searle & Co., priority 1993, dated 2002).

Structures are written as SMILES.

The target of test [1] is T1, Rat brain constitutive nitric oxide synthase (rnNOS) (Rattus norvegicus, UniProt P29476).
T1 construct: prepared from an extract of rat cerebellum and partially purified by DEAE-Sepharose chromatography; from tissue; host or cells: rat cerebellum
The test is described as follows: Citrulline assay for nitric oxide synthase (cNOS). In kind it is biochemical. The protocol:
Nitric oxide synthase activity was measured by monitoring the conversion of [3H]-arginine to [3H]-citrulline. Mouse inducible nitric oxide synthase (miNOS) was prepared from an extract of LPS-treated RAW 264.7 cells and partially purified by DEAE-Sepharose chromatography. Rat brain constitutive nitric oxide synthase (rnNOS) was prepared from an extract of rat cerebellum and partially purified by DEAE-Sepharose chromatography. Enzyme and inhibitors were incubated at 37° C. for 15 minutes in a reaction volume of […] with the following components added to start the reaction: 50 mM Tris (pH 7.6), 1 mg/ml bovine serum albumin, 1 mM DTT, 2 mM CaCl2, 10 mM FAD, 10 mM tetrahydrobiopterin, […] L-arginine containing L-[2,3-3H]-arginine at 300 cpm/pmole and 1 mM NADPH. For constitutive NOS, 50 nM calmodulin was also added. The reaction was terminated by addition of cold stop buffer containing 10 mM EGTA, 100 mM HEPES, pH 5.5 and 1 mM citrulline. [3H]-Citrulline was separated by chromatography on Dowex 50W X-8 cation exchange resin and radioactivity determined with a liquid scintillation counter.

For test [2], the system named is intracellular iNOS in LPS-induced RAW 264.7 cells. Nature of the test: Raw cell nitrite assay. In kind it is cell-based. The conditions noted are these: Mus musculus, RAW264.7, 1 h, read-out: Raw Cell IC50. The protocol: RAW 264.7 cells are plated to confluency on a 96-well tissue culture plate grown overnight (17h) in the presence of LPS to induce NOS. […] The media was removed from each well and the cells are washed twice with Krebs-Ringers-Hepes (25 mM, pH 7.4) with 2 mg/ml glucose. The cells are then placed on ice and incubated with […] of buffer containing L-arginine (30 mM) +/− inhibitors for 1 h. The assay is initiated by warming the plate to 37° C. in a water bath for 1 h. […] To terminate the cellular assay, the plate of cells is placed on ice and the nitrite-containing buffer removed and analyzed for nitrite using a previously published fluorescent determination for nitrite. […] All values are the average of triplicate wells and are compared to a background-subtracted induced set of cells (100% value).

Test [3] has as its system LPS-induced increase in plasma nitrites. Nature of the test: In vivo assay: endotoxin (LPS)-induced plasma nitrites in rat. The settings on record: Low Endotoxin in Rat Model. The protocol:
Rats were treated with an intraperitoneal injection of 10 mg/kg of endotoxin (LPS) with or without oral administration of the nitric oxice synthase inhibitors. Plasma nitrites were measured 5 hours post-treatment.
IP is the abbreviation for 2-iminopiperidine. LPS is the abbreviation for endotoxin

Test [4] has as its target T2, Mouse inducible nitric oxide synthase (miNOS) (Mus musculus, UniProt P29477).
T2 construct: prepared from an extract of LPS-treated RAW 264.7 cells and partially purified by DEAE-Sepharose chromatography; endogenous in cells; host or cells: LPS-treated RAW 264.7 cells (mouse macrophage line)
The test is described as follows: biochemical. The settings on record: conversion of [3H]-arginine to [3H]-citrulline; 37° C., 15 minutes; read-out: iNOS.
Description: Nitric oxide synthase activity was measured by monitoring the conversion of [3H]-arginine to [3H]-citrulline. Mouse inducible nitric oxide synthase (miNOS) was prepared from an extract of LPS-treated RAW 264.7 cells and partially purified by DEAE-Sepharose chromatography. […] Enzyme and inhibitors were incubated at 37° C. for 15 minutes in a reaction volume of 100 mL with the following components added to start the reaction: 50 mM Tris (pH 7.6), 1 mg/ml bovine serum albumin, 1 mM DTT, 2 mM CaCl2, 10 mM FAD, 10 mM tetrahydrobiopterin, 30 mM L-arginine containing L-[2,3-3H]-arginine at 300 cpm/pmole and 1 mM NADPH. […] The reaction was terminated by addition of cold stop buffer containing 10 mM EGTA, 100 mM HEPES, pH 5.5 and 1 mM citrulline. [3H]-Citrulline was separated by chromatography on Dowex 50W X-8 cation exchange resin and radioactivity determined with a liquid scintillation counter.

T1 sequence (P29476 whole entry): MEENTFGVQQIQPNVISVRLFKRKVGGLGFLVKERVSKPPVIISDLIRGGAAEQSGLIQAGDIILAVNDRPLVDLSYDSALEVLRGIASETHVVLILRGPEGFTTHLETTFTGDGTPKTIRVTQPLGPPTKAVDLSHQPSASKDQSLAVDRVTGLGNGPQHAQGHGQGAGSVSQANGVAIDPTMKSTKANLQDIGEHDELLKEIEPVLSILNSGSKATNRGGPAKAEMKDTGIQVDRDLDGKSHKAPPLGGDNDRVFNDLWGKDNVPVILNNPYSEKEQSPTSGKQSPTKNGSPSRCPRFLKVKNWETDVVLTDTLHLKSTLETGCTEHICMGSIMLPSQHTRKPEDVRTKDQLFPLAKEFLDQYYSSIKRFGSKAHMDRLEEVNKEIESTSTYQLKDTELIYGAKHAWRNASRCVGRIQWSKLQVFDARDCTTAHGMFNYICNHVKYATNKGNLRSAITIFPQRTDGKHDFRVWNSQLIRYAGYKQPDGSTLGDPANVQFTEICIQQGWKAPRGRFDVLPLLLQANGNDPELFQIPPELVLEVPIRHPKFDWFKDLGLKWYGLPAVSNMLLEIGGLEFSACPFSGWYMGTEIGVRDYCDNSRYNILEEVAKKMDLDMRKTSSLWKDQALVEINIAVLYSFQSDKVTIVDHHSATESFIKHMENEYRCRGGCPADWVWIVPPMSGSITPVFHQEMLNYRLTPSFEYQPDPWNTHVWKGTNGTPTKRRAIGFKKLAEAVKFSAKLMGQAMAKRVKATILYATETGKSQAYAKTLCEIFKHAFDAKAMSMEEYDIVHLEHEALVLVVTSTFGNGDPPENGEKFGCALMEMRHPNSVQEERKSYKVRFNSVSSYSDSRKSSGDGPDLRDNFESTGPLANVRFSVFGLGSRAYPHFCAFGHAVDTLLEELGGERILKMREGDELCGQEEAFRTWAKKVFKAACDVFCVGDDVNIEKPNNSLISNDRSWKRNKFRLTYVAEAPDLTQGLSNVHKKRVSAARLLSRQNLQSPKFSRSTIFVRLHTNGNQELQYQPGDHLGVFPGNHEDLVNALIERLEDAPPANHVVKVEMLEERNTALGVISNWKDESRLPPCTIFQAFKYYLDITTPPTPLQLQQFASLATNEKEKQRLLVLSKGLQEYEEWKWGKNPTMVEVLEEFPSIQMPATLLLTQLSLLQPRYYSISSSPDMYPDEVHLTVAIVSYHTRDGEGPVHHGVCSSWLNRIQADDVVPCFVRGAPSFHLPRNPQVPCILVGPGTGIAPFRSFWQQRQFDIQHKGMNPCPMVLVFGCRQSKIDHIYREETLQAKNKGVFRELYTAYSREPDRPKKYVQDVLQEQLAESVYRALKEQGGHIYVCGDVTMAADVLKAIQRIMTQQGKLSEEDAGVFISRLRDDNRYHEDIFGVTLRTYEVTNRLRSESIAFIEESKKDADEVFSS
T2 sequence (P29477 whole entry): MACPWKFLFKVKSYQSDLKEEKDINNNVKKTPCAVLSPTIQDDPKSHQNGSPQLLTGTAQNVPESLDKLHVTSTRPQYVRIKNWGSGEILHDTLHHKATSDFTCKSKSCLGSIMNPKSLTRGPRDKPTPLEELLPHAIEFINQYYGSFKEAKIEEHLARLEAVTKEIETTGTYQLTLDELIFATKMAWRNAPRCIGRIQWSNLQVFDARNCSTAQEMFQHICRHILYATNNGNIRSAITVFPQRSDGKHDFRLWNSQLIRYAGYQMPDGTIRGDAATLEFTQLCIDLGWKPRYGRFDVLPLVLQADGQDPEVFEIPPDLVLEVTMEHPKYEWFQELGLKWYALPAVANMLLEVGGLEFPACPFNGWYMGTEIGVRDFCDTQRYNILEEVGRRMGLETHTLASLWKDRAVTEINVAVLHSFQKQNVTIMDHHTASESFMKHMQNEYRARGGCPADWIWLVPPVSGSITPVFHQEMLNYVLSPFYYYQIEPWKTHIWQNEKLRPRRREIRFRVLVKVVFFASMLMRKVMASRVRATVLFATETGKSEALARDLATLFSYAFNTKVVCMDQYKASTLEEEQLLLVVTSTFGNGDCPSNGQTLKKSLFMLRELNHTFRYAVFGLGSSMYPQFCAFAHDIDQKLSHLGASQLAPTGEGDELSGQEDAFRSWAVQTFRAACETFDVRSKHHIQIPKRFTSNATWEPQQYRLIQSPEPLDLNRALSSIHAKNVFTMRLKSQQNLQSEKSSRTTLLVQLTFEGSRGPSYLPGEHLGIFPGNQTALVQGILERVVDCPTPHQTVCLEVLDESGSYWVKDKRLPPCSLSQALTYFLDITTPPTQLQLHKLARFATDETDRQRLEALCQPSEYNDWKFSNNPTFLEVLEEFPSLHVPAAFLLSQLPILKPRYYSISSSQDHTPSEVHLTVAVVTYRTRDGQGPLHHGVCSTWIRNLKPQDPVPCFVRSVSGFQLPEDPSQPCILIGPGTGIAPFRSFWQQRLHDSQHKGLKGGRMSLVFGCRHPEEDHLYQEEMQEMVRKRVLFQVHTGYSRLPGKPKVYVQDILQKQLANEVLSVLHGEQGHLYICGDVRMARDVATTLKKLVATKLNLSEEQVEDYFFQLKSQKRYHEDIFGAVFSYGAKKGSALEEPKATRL

In general, ED50 refers to the midpoint of the dose-response relation. Low readings indicate greater potency, high ones weaker potency. In the case of `CCCC1CCCCC(=N)N1.Cl` (centres unmarked) [Example 114, hexahydro-7-propyl-1H-azepin-2-imine, monohydrochloride], the IC50 in test [1] is 7.8 µM; in test [2], 0.55 µM. This molecule also had an ED50 in test [3] (po, administered p.o.) of 3.4 mg/kg.

Turning to `CCC(CC)CC1CCCCC(=N)N1.Cl` (centres unmarked) [Example 198, 7-(2-ethylbutyl)hexahydro-1H-azepin-2-imine, monohydrochloride], the results for the IC50 in test [4], in test [1] and in test [2] were 2.1 µM, 652 µM and 3.3 µM, respectively. The molecule also had a 50% effective dose (ED50) in test [3] (determined using iv infusion) of 5 mg/kg.

For `Cl.N=C1CCCCC(C2CCCCC2)N1` (centres unmarked) [Example 96, 7-cyclohexyl-hexahydro-1H-azepin-2-imine, monohydrochloride], the IC50 in test [4] worked out at 9.3 µM; in test [1] it was 1400 µM. Also, in test [3] (po, administered p.o.), the ED50 is 3.8 mg/kg.

For `C=CCC1CCCCC(=N)N1.Cl` (centres unmarked) [Example 108, hexahydro-7-(2-propenyl)-1H-azepin-2-imine, monohydrochloride], the IC50 amounted to 19 µM in test [1] and 0.57 µM in test [2]. The ED50 in test [3] (po, administered p.o.) amounted to 3.7 mg/kg.

As to `CCCCC1CCCCC(=N)N1.Cl` (centres unmarked) [Example 188, 7-butylhexahydro-1H-azepin-2-imine, monohydrochloride], the figures for the IC50 in test [4], in test [1] and in test [2] were 0.55 µM, 106 µM and 0.65 µM, respectively. Moreover, in test [3] (po, administered p.o.), the ED50 turned out to be 3.7 mg/kg.
